For assay [1], the system named is Mus musculus. Kind of assay: Antiobesity activity in diet-induced obese C57Bl/6 mouse assessed as reduction in body weight at 150 mg/kg/day, po for 4 weeks administered with high-fat diet. In kind it is functional. Details: scale not given: the % may be the effect or the level left.
For assay [2], the system named is Mus musculus. Kind of assay: Antiobesity activity in diet-induced obese C57Bl/6 mouse assessed as loss of liver weight at 150 mg/kg/day, po for 4 weeks administered with high-fat diet. The class given is functional.
The subject of assay [3] is Mus musculus. The assay can be described thus: Antiobesity activity in diet-induced obese C57Bl/6 mouse assessed as loss of epididymal fat mass at 150 mg/kg/day, po for 4 weeks administered with high-fat diet. The class given is functional.
Assay [4] deals with Mus musculus. Kind of assay: Increase in glucose tolerance in diet-induced obese C57Bl/6 mouse assessed as induction of insulin secretion at 150 mg/kg/day, po for 4 weeks by oral glucose tolerance test. In kind it is functional, organism-based.
For assay [5], the system named is Mus musculus. Kind of assay: Decrease in insulin resistance in diet-induced obese C57Bl/6 mouse at 150 mg/kg/day, po for 4 weeks by insulin tolerance test. In kind it is functional, organism-based.
The test system of assay [6] is Mus musculus. The assay can be described thus: Antiobesity activity in diet-induced obese C57Bl/6 mouse assessed as reduction in fasting blood glucose at 150 mg/kg/day, po for 4 weeks administered with high-fat diet (reference value: 5.0 +/- 1.30 mM). The class given is functional.
Assay [7] concerns Mus musculus. The assay can be described thus: Antiobesity activity in diet-induced obese C57Bl/6 mouse assessed as change in insulin level at 150 mg/kg/day, po for 4 weeks administered with high-fat diet (reference value: 11.85 +/- 2.6 mU). In kind it is functional.
Assay [8] concerns Mus musculus. The assay can be described thus: Antiobesity activity in diet-induced obese C57Bl/6 mouse assessed as reduction in triglyceride level at 150 mg/kg/day, po for 4 weeks administered with high-fat diet (reference value: 0.93 +/- 0.09 mM). In kind it is functional.
In assay [9] the test system is Mus musculus. Kind of assay: Antiobesity activity in diet-induced obese C57Bl/6 mouse assessed as reduction in LDL level at 150 mg/kg/day, po for 4 weeks administered with high-fat diet (reference value: 0.14 +/- 0.07 mM). In kind it is functional.
Assay [10] deals with Mus musculus. Kind of assay: Antiobesity activity in diet-induced obese C57Bl/6 mouse assessed as increase in HDL level at 150 mg/kg/day, po for 4 weeks administered with high-fat diet (reference value: 0.60 +/- 0.17 mM). In kind it is functional.
In assay [11] the test system is Mus musculus. The assay can be described thus: Antiobesity activity in diet-induced obese C57Bl/6 mouse assessed as reduction in FFA level at 150 mg/kg/day, po for 4 weeks administered with high-fat diet (reference value: 19.55 +/- 1.57 ng/L). The class given is functional.
Assay [12] deals with Mus musculus. The assay can be described thus: Antiobesity activity in diet-induced obese C57Bl/6 mouse assessed as reduction in hepatic triglyceride level at 150 mg/kg/day, po for 4 weeks administered with high-fat diet by Oil Red O staining-based histological method. The class given is functional. Also noted: scale not given: the % may be the effect or the level left.
In assay [13] the test system is Mus musculus. Kind of assay: Antiobesity activity in diet-induced obese C57Bl/6 mouse assessed as reduction in fasting blood glucose at 150 mg/kg/day, po for 4 weeks administered with high-fat diet (reference value: 4.88 +/- 0.75 mM). In kind it is functional.
Assay [14] deals with Mus musculus. The assay can be described thus: Antiobesity activity in diet-induced obese C57Bl/6 mouse assessed as change in insulin level at 150 mg/kg/day, po for 4 weeks administered with high-fat diet (reference value: 4.31 +/- .82 mU). The class given is functional.
The subject of assay [15] is Mus musculus. Kind of assay: Antiobesity activity in diet-induced obese C57Bl/6 mouse assessed as reduction in triglyceride level at 150 mg/kg/day, po for 4 weeks administered with high-fat diet (reference value: 0.96 +/- 0.14 mM). In kind it is functional.
Assay [16] relates to Mus musculus. Kind of assay: Antiobesity activity in diet-induced obese C57Bl/6 mouse assessed as reduction in LDL level at 150 mg/kg/day, po for 4 weeks administered with high-fat diet (reference value: 0.13 +/- 0.02 mM). The class given is functional.
The test system of assay [17] is Mus musculus. The assay can be described thus: Antiobesity activity in diet-induced obese C57Bl/6 mouse assessed as increase in HDL level at 150 mg/kg/day, po for 4 weeks administered with high-fat diet (reference value: 1.02 +/- 0.13 mM). In kind it is functional.
The test system of assay [18] is Mus musculus. Kind of assay: Antiobesity activity in diet-induced obese C57Bl/6 mouse assessed as reduction in FFA level at 150 mg/kg/day, po for 4 weeks administered with high-fat diet (reference value: 25.07 +/- 3.49 ng/L). The class given is functional.
The subject of assay [19] is Mus musculus. Kind of assay: Antiobesity activity in diet-induced obese C57Bl/6 mouse assessed as reduction in HOMA-IR value at 150 mg/kg/day, po for 4 weeks administered with high-fat diet (reference value: 0.94 +/- 0.23 no_unit). In kind it is functional.

The values that follow come from ChEMBL document CHEMBL3352801, “Synthesis and lipid-lowering evaluation of 3-methyl-1H-purine-2,6-dione derivatives as potent and orally available anti-obesity agents” (Eur J Med Chem, 2014).

The source made the active and inactive calls. The calls are words filed in the database; no cut-off is given here.

Take `CN(C)C(=N)NC(=N)N` [METFORMIN]: the Activity is 19.08% with Mus musculus [1]; 23.2% with Mus musculus [2]; 22.94% with Mus musculus [3]; 5.32 mM with Mus musculus [6]; 8.1 mU in the assay with Mus musculus [7]; 0.92 mM with Mus musculus [8]. Also, the Activity with Mus musculus [9] worked out at 0.12 mM; in the assay on Mus musculus [10], 0.82 mM; with Mus musculus [11], 21.56 ng/L; with Mus musculus [12], 10.73%; in the assay with Mus musculus [13], 7.57 mM; in the assay with Mus musculus [14] it was 5.48 mU. The Activity in the assay with Mus musculus [15] is reported as 1.07 mM; with Mus musculus [16], 0.17 mM; in the assay with Mus musculus [17] it was 1.38 mM; in the assay on Mus musculus [18], 26.05 ng/L; with Mus musculus [19], 1.73. The result with Mus musculus [4] and in the assay on Mus musculus [5] was Active.
